Patent publication US20240408055A1 (priority 2021, published 2024)
pEC50: −log10 of the molar value. Converted amounts (≈) assume the structure as drawn.

Tests used:
[1] = test system: SARS-CoV-2 pseudovirus Wuhan D614; experiment: microbe, parasite or virus in culture; type: cell-based
[2] = test system: SARS-CoV-2 pseudovirus South Africa B.1.351; experiment: microbe, parasite or virus in culture; type: cell-based
[3] = test system: SARS-CoV-2 pseudovirus Brazil P.1; experiment: microbe, parasite or virus in culture; type: cell-based
[4] = test system: SARS-CoV-2 pseudovirus India B.1.617.1; experiment: microbe, parasite or virus in culture; type: cell-based
[5] = test system: SARS-CoV-2 pseudovirus Uganda A23.1; experiment: microbe, parasite or virus in culture; type: cell-based
[6] = test system: SARS-CoV-2 pseudovirus Nigeria B.1.525; experiment: microbe, parasite or virus in culture; type: cell-based
[7] = test system: SARS-CoV-2 pseudovirus California B.1.429; experiment: microbe, parasite or virus in culture; type: cell-based
[8] = test system: SARS-CoV-2 pseudovirus New York B.1.526; experiment: microbe, parasite or virus in culture; type: cell-based
[9] = test system: SARS-CoV-2; conditions: mouse, in vivo
[10] = target: T1, Cathepsin B (Homo sapiens, UniProt P07858); experiment: Cathepsin B Inhibitor Screening Assay Kit (fluorescence); type: biochemical; conditions: Cathepsin B 0.4 ng/group, 50 μL reaction; read-out: half maximal effective concentration (EC50) against Cathepsin B protease activity
T1 construct: purchased BPS BIOSCIENCE 79590
Procedure: In the biochemical test, the Cathepsin B Fluorescence Assay Kit (Cathepsin B Inhibitor Screening Assay Kit, BPS BIOSCIENCE, 79590) was used in the test method. According to the manufacturer's manual, the inhibition activity was measured through continuous kinetic analysis, the samples containing Cathepsin B were reacted with a fluorescent substrate in the mixing, and the measured fluorescence (λex=360 nm, λem=460 nm) readings were used. The E64 protease inhibitor was used as a positive control. The experiment was conducted in a 50 μL reaction system, with a single reaction dose of Cathepsin B at 0.4 ng/group, the E64 protease inhibitor were used as a positive control. The inhibitory impact of various concentrations of Anisomelic acid (0.5, 1, 2.5, 5, 10, 20, and 30 μM) against Cathepsin B protease activity was examined. The significant inhibition of Anisomelic acid against Cathepsin B protease activity was found in a dose-dependent manner.

[11] = target: Cathepsin L (Homo sapiens, UniProt P07711); experiment: Cathepsin L Inhibitor Screening Assay Kit (fluorescence); type: biochemical; conditions: Cathepsin L 0.4 ng/group, 50 μL reaction; read-out: half maximal effective concentration (EC50) against Cathepsin L protease activity
Procedure: The Cathepsin L Fluorescence Assay Kit (Cathepsin L Inhibitor Screening Assay Kit, BPS BIOSCIENCE, 79591) was used in the biochemical test method. According to the manufacturer's manual, the inhibition activity was measured through continuous kinetic analysis, the samples containing Cathepsin L were reacted with a fluorescent substrate in mixing, and the measured fluorescence (λex=360 nm, λem=460 nm) readings were used. The E64 protease inhibitor was used as a positive control. The experiment was conducted in a 50 μL reaction system, with a single reaction dose of Cathepsin L at 0.4 ng/group, the E64 was used as the positive control of inhibition. The inhibitory impact of various concentrations of Anisomelic acid (0.5, 1, 2.5, 5, 10, 20, and 30 μM) against Cathepsin L protease activity was examined. As shown in the right graph of FIG. 5B, the significant inhibition of Anisomelic acid against Cathepsin L protease activity was found in a dose-dependent manner.

[12] = target: T2, TMPRSS2 (Homo sapiens, UniProt O15393); experiment: TMPRSS2 Fluorogenic Assay Kit; type: biochemical; conditions: TMPRSS2 150 ng/group, 50 μL reaction; read-out: half maximal effective concentration (EC50) against TMPRSS2 protease activity
T2 construct: purchased BPS BIOSCIENCE 78083
Procedure: In the biochemical experiments, TMPRSS2 Fluorescence Assay Kit (TMPRSS2 Fluorogenic Assay Kit, BPS BIOSCIENCE, 78083) was used in the test method. Inhibitory activity was measured by sequential kinetic analysis according to the manufacturer's manual, the inhibition activity was measured by using continuous kinetic analysis, the samples containing TMPRSS2 were reacted with a fluorescent substrate in a mixing, and a fluorescence (λex=383 nm, λem=455 nm) readings were used. Camostat protease inhibitor was used as a positive control. The experiment was performed in a 50 μL reaction system, the single reaction dose of TMPRSS2 was 150 ng/group, and 10 μM Camostat protease inhibitor was used as a positive control. The effect of Anisomelic acid on the inhibition of TMPRSS2 protease activity was examined by tested various concentrations of Anisomelic acid (0.5, 1, 2.5, 5, 10, 20 and 30 μM). A significant inhibition of Anisomelic acid against TMPRSS2 protease activity was found in a dose-dependent manner.

[13] = target: T3, SARS-CoV-2 main protease (Mpro) (Severe acute respiratory syndrome coronavirus 2, UniProt P0DTD1); type: biochemical; conditions: read-out: half maximal effective concentration (EC50) against Mpro activity
T3 construct: a recombinant 2019-nCoV 3CL protease protein (Elabscience bio Inc) was used; purchased Elabscience bio Inc

[14] = Severe acute respiratory syndrome-related coronavirus, Huh-7, read-out: IC50 inhibiting infection

Chain of Cathepsin L (P07711 114-333): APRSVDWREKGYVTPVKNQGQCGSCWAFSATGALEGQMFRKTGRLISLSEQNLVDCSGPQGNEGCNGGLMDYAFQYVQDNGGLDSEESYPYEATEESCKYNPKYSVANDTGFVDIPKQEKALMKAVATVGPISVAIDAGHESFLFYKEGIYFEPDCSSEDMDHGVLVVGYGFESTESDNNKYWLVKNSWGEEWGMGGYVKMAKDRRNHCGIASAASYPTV
T2 sequence (O15393 whole entry): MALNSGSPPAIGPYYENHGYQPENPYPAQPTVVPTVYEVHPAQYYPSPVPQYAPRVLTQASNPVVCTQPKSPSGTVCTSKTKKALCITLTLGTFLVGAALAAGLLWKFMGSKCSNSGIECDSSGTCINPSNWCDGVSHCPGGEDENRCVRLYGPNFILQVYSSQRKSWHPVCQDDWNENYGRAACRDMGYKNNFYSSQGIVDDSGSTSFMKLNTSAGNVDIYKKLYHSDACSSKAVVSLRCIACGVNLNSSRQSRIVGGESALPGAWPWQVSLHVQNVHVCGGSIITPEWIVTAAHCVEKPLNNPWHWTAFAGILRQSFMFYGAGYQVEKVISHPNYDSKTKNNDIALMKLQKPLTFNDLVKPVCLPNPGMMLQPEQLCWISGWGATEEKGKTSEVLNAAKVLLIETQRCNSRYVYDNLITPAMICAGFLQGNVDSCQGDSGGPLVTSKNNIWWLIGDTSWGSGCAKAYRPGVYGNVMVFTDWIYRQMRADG

SMILES | IC50 inhibiting infection [1] | IC50 inhibiting infection [2] | IC50 inhibiting infection [3] | IC50 inhibiting infection [4] | IC50 inhibiting infection [5] | IC50 inhibiting infection [6] | IC50 inhibiting infection [7] | IC50 inhibiting infection [8] | changes in body weight of the mice [9] | further results
C=C1C(=O)O[C@@H]2/C=C(\C)C[C@H]3C=C(CC/C=C(\C)CC[C@@H]12)C(=O)O3 [Ovatodiolide] | 4.08 µg/mL (≈ 12.4 µM) | 15.42 µg/mL (≈ 47 µM) | 7.00 µg/mL (≈ 21.3 µM) | 15.27 µg/mL (≈ 46.5 µM) | 6.72 µg/mL (≈ 20.5 µM) | 8.24 µg/mL (≈ 25.1 µM) | 12.09 µg/mL (≈ 36.8 µM) | 11.35 µg/mL (≈ 34.6 µM) | basically similar | –
CCC(CC)COC(=O)[C@H](C)N[P@](=O)(OC[C@H]1O[C@@](C#N)(c2ccc3c(N)ncnn23)[C@H](O)[C@@H]1O)Oc1ccccc1 [Remdesivir, reference compound] | – | – | – | – | – | – | – | – | basically similar | IC50 [1, 14]: 2.96 µg/mL (≈ 4.91 µM); IC50 [2, 14]: 27.2 µg/mL (≈ 45.2 µM); IC50 [3, 14]: 13.8 µg/mL (≈ 22.8 µM); IC50 [4, 14]: 11.9 µg/mL (≈ 19.8 µM); IC50 [5, 14]: 7.63 µg/mL (≈ 12.7 µM); IC50 [6, 14]: 10.3 µg/mL (≈ 17.1 µM); IC50 [7, 14]: 15.9 µg/mL (≈ 26.4 µM); IC50 [8, 14]: 15 µg/mL (≈ 24.9 µM)
C=C1C(=O)OC2/C=C(/C)CC/C=C(\C(=O)O)CC/C=C(\C)CCC12 (centres unmarked) [Anisomelic acid] | 3.50 µg/mL (≈ 10.6 µM) | 27.55 µg/mL (≈ 83.4 µM) | 0.12 µg/mL (≈ 0.363 µM) | 10.09 µg/mL (≈ 30.5 µM) | 15.53 µg/mL (≈ 47 µM) | 14.36 µg/mL (≈ 43.5 µM) | 8.47 µg/mL (≈ 25.6 µM) | 8.86 µg/mL (≈ 26.8 µM) | basically similar | pEC50 [10]: 5.37; pEC50 [11]: 5.43; pEC50 [12]: 5.19; pEC50 [13]: 5.01; changes in the titers of coronavirus infection in the lungs of mice [9]: better prevention and control effects
